Where two headings read alike, the source gives them in different places.
Key:
[1] = system: BRAF-MEK1; experiment: BRAF-MEK TR-FRET assay, stabilization of MEK1 and BRAF interaction; format: binding; settings: read-out: BRAF-MEK TR-FRET Assay (EC50, fold stabilization)
How it was run: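 Read-out is fold stabilization (treated FRET ratio/DMSO, Em 665/620 nm), fit 4-parameter for EC50 from 2 replicates. Compounds sat with 4 nM GST-BRAF and 10 nM in-house His-MEK1 1 h at 25° C (Tris pH 7.5, MgCl2, 100 μM ATP), then detection antibodies 1 h.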

[2] = biological target: T1, MEK1 (Homo sapiens, UniProt Q02750); experiment: MEK1 kinase cascade assay (ADP-Glo), inhibition of MEK1 kinase activity; format: biochemical
T1 construct: purchased SignalChem M02-14H
How it was run: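 Cascade format with ADP-Glo read-out: BRAF (25 nM) and compound, 1% DMSO, 20 mins at 25° C, then MEK1 6.25 nM, ERK1 0.5 μM, ATP 1 mM for 1 hr at 25° C in HEPES pH 7.5 buffer with MgCl2, CHAPS and DTT. Percent inhibition, scaled between DMSO and 1 μM Trametinib, was fit by 4-parameter logistic to give IC50 (2 replicate wells).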

[3] = system: NCI-H292 cells; experiment: Cell viability assay (CellTiter-Glo), NCI-H292; format: cell-based; settings: Homo sapiens, 72 hrs, read-out: Cell Viability Assay: IC50 Determination NCI-H292
Procedure: (§1) Cell culture: HCTI 16, HT-29, and NCI-H292 cells were acquired from American Type Culture Collection (ATCC). HCT116 and HT-29 cells were maintained in ATCC-formulated McCoy's 5a Medium Modified supplemented with 10% fetal bovine serum, NCI-H292 cells were cultured in ATCC formulated RPMI-1640 supplemented with 10% fetal bovine serum. All cells were maintained at 37° C., 5% CO2.
Efficacy of exemplary compounds in inhibition of cell viability: HCT116 and HT-29 cells were plated at 4,000 cells per well and NCI-H292 cells were plated at 2,000 cells per well in their respective media in 384-well white, TC-treated plates (Corning). After 24 hours of incubation, the cells were treated with vehicle (DMSO) or test compounds (0.1% DMSO in final volume) for 72 hrs. The plate was equilibrated at room temperature for 10 mins followed by addition of a 1:1 volume of CellTiter-Glo® reagent (Promega). The contents were mixed for 2 mins on an orbital shaker to induce lysis. The plate was incubated at room temperature for 10 mins to stabilize luminescent signal before measuring luminescence on a Cytation5 microplate reader (Agilent). % inhibition as a function of compound concentration from 3 replicate wells was fit with a 4-parameter logistic curve using GraphPad Prism or CDD Vault to derive IC50 values.
(§2) In this table, for the BRAF ADP Glo kinase assay, “A” indicates IC50 of less than 5 nM; “B” indicates IC50 of between 5 nM to 50 nM; and “C” indicates IC50 of between 50 nM to 500 nM. “D” indicates IC50 of greater than 500 nM. For the BRAF-MEK TR-FRET assay, “A” indicates EC50 of less than 50 nM; “B” indicates EC50 of between 50 nM to 200 nM; and “C” indicates EC50 of between 200 nM to 1 μM. “D′” indicates EC50 of greater than 1 μM. For the AlphaLisa P-ERK assay, “A” indicates IC50 of less than 1 nM; “B” indicates IC50 of between 1 nM to 10 nM; and “C” indicates IC50 of between 10 nM to 100 nM. “D” indicates IC50 of greater than 100 nM. For the cell viability assay, “A” indicates IC50 of less than 1 nM; “B” indicates IC50 of between 1 nM to 10 nM; and “C” indicates IC50 of between 10 nM to 100 nM. “D” indicates IC50 of greater than 100 nM.

[4] = system: p-ERK1/2 in HCT116 cells; experiment: AlphaLISA p-ERK assay, cellular inhibition of ERK phosphorylation in HCT116 cells; format: cell-based; settings: Homo sapiens, HCT-116, 2 hours treatment, PMA stimulation 30 mins
Procedure: as §1
Efficacy of exemplary compounds in cellular inhibition of ERK phosphorylation: Phosphorylation status of ERK1/2 (p-ERK) was used as a readout for inhibition of BRAF-MEK pathway. p-ERK was detected using an immunoassay for quantitative detection of phospho-ERK 1/2 (phosphorylated on Thr202/Tyr204 in ERK1, or Thr185/Tyr187 in ERK2), such as the AlphaLISA® SureFire® Ultra™ p-ERK1/2 (Thr202/Tyr204) kit (Perkin Elmer). HCT116 cells were plated at 10,000 cells per well in 384-well TC-treated plates (Coming). Cells were plated for 24 hours, the medium was then aspirated and cells were treated with vehicle (DMSO) or test compounds (0.1% DMSO in final volume) prepared in serum free, phenol red free medium for 2 hours. Following treatment, cells were stimulated with PMA (1.25 μM/well) for 30 mins after which the medium was aspirated, and the cells were lysed for 10 mins with 1× lysis buffer supplemented with Halt Protease and Phosphatase Inhibitor Cocktail (Thermo Fisher). The lysate was transferred to a 384 well Alpha-plate (PerkinElmer) and incubated for 1 hour with acceptor bead mix followed by 1 hour incubation with donor bead mix. After incubation, the plate was read on a Cytation5 microplate reader (Agilent). % inhibition as a function of compound concentration from 3 replicate wells was fit with a 4-parameter logistic curve using GraphPad Prism or CDD Vault to derive IC50 values.
as §2

[5] = 4 nM BRAF, 10 nM MEK, 100 μM ATP, 1 hr at 25° C.
[6] = 25 nM BRAF, 6.25 nM MEK1, 0.5 μM ERK, 1 mM ATP, 20 min preincubation, 1 hr at 25° C., read-out: BRAF ADP Glo kinase assay V3 (IC50)

T1 sequence (Q02750 whole entry): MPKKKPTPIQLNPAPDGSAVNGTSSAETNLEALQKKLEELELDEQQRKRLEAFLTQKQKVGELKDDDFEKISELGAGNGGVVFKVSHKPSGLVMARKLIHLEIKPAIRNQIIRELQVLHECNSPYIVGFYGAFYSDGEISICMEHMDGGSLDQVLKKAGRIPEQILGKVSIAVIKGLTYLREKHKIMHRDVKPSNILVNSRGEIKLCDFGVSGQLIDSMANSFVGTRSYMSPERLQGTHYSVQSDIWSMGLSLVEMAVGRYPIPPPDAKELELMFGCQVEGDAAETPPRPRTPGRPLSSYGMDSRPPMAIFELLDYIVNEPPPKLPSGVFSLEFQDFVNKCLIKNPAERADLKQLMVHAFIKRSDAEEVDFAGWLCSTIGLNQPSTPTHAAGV
T1 sequence (P15056 445-723 partner limits assumed): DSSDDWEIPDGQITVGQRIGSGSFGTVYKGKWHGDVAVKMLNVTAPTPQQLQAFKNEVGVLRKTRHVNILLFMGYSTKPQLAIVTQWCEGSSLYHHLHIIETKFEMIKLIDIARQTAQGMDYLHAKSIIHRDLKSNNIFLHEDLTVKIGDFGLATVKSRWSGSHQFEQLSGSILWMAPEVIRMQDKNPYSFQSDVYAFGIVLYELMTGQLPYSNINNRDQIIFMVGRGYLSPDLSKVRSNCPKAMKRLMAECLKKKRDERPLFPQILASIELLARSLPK

SMILES | EC50 [1, 5] | IC50 [2, 6] | IC50 [3] | IC50 [4] | EC50 ([1]; 60 min) | IC50 ([2]; BRAF ADP Glo kinase assay V3 (IC50))
CNS(=O)(=O)Nc1cccc(CN2C(=O)Oc3cc(Oc4cccnn4)c(F)cc3[C@@H]2C)c1F (single isomer, unassigned) [Compound 66] | 200 to 1000 nM | < 5 nM | 1 to 10 nM | 1 to 10 nM |  | 
CNS(=O)(=O)Nc1cccc(CN2Cc3c(F)cc(OC(=O)N(C)C)cc3OC2=O)c1F [Compound 118, 5-fluoro-3-(2-fluoro-3-((N-methylsulfamoyl)amino)benzyl)-2-oxo-3,4-dihydro-2H-benzo[e][1,3]oxazin-7-yl dimethylcarbamate] | 50 to 200 nM | < 5 nM | < 1 nM | 1 to 10 nM |  | 
CNS(=O)(=O)Nc1nccc(CN2C(=O)Oc3cc(Oc4ncco4)ccc3C23COC3)c1F [Compound 68, 3-({3-fluoro-2-[(methylsulfamoyl)amino]pyridin-4-yl}methyl)-7-(1,3-oxazol-2-yloxy)-2,3-dihydrospiro[1,3-benzoxazine-4,3′-oxetan]-2-one] | 50 to 200 nM | 5 to 50 nM | 1 to 10 nM | 10 to 100 nM |  | 
CNS(=O)(=O)Nc1cccc(CN2Cc3ccc(Oc4ncco4)cc3OC2=O)c1F [Compound 80, 3-({2-fluoro-3-[(methylsulfamoyl)amino]phenyl}methyl)-7-(1,3-oxazol-2-yloxy)-3,4-dihydro-2H-1,3-benzoxazin-2-one] | 200 to 1000 nM | 5 to 50 nM | 1 to 10 nM | 10 to 100 nM |  | 
CNS(=O)(=O)Nc1cccc(CN2C(=O)Oc3c(ccc(Oc4cccnn4)c3F)C23COC3)c1F [Compound 42] | 50 to 200 nM | < 5 nM | 1 to 10 nM | 1 to 10 nM |  | 
CNS(=O)(=O)Nc1cccc(CN2C(=O)Oc3cc(Oc4cccnn4)cc(F)c3C23COC3)c1F [Compound 63] | 50 to 200 nM | 5 to 50 nM | 1 to 10 nM | 1 to 10 nM |  | 
CNS(=O)(=O)Nc1cccc(CN2C(=O)Oc3cc(Oc4ncco4)ccc3C23COC3)c1F [Compound 95, 3-({2-fluoro-3-[(methylsulfamoyl)amino]phenyl}methyl)-7-(1,3-oxazol-2-yloxy)-2,3-dihydrospiro[1,3-benzoxazine-4,3′-oxetan]-2-one] | 50 to 200 nM | < 5 nM | 1 to 10 nM | 1 to 10 nM |  | 
CNS(=O)(=O)Nc1cccc(CN2Cc3cc(Cl)c(OC(=O)N(C)C)cc3OC2=O)c1F [Compound 149, 6-chloro-3-(2-fluoro-3-((N-methylsulfamoyl)amino)benzyl)-2-oxo-3,4-dihydro-2H-benzo[e][1,3]oxazin-7-yl dimethylcarbamate] |  |  | 1 to 10 nM | 1 to 10 nM | 50 to 200 nM | < 5 nM
CNS(=O)(=O)Nc1cccc(CN2C(=O)Oc3cc(Oc4cccnn4)cc(F)c3[C@H]2C)c1F (single isomer, unassigned) [Compound 57] | 50 to 200 nM | 5 to 50 nM | 1 to 10 nM | 1 to 10 nM |  | 
CNS(=O)(=O)Nc1nccc(CN2Cc3ccc(Oc4ncco4)cc3OC2=O)c1F [Compound 162, 3-{[3-fluoro-2-(methylaminosulfonylamino)-4-pyridyl]methyl}-7-(1,3-oxazol-2-yloxy)-3,4-dihydro-2H-1,3-benzoxazin-2-one] | 50 to 200 nM |  | 1 to 10 nM | 10 to 100 nM |  | 
CNS(=O)(=O)Nc1nccc(CN2Cc3ccc(Oc4nccnn4)cc3OC2=O)c1F [Compound 164, 3-{[3-fluoro-2-(methylaminosulfonylamino)-4-pyridyl]methyl}-7-(1,2,4-triazin-3-yloxy)-3,4-dihydro-2H-1,3-benzoxazin-2-one] | < 50 nM | 5 to 50 nM | < 1 nM | 10 to 100 nM |  | 
CNS(=O)(=O)Nc1cccc(CN2C(=O)Oc3cc(Oc4cccnn4)ccc3C23CCC3)c1F [Compound 41, 3-({2-fluoro-3-[(methylsulfamoyl)amino]phenyl}methyl)-7-(pyridazin-3-yloxy)-2,3-dihydrospiro[1,3-benzoxazine-4,1′-cyclobutan]-2-one] | < 50 nM | < 5 nM | 1 to 10 nM | 1 to 10 nM |  | 
CNS(=O)(=O)Nc1cccc(CN2C(=O)Oc3c(ccc(Oc4ncco4)c3F)C23COC3)c1F [Compound 82] | 200 to 1000 nM | < 5 nM | 1 to 10 nM | 1 to 10 nM |  | 
CNS(=O)(=O)Nc1cccc(CN2Cc3c(F)cc(Oc4ncccn4)cc3OC2=O)c1F [Compound 117] | 200 to 1000 nM | 5 to 50 nM | 10 to 100 nM | 1 to 10 nM |  | 
O=C1Oc2cc(Oc3cccnn3)c(F)cc2C2(COC2)N1Cc1cccc(NS(=O)(=O)C2CC2)c1F [Compound 53, N-(2-fluoro-3-{[6-fluoro-2-oxo-7-(pyridazin-3-yloxy)-2,3-dihydrospiro[1,3-benzoxazine-4,3′-oxetan]-3-yl]methyl}phenyl)cyclopropanesulfonamide] | 50 to 200 nM | 5 to 50 nM | 1 to 10 nM | 10 to 100 nM |  | 
O=C1Oc2cc(Oc3ccccn3)ccc2CN1Cc1cccc(NS(=O)(=O)C2CC2)c1F [Compound 62, N-(2-fluoro-3-((2-oxo-7-(pyridin-2-yloxy)-2H-benzo[e][1,3]oxazin-3(4H)-yl)methyl)phenyl)cyclopropanesulfonamide] |  | 5 to 50 nM | > 100 nM | > 100 nM |  | 
O=C1Oc2cc(Oc3nccnn3)ccc2C2(CCC2)N1Cc1ccnc(NS(=O)(=O)C2CC2)c1F [Compound 161, (cyclopropylsulfonyl)[3-fluoro-4-({2-oxo-7-(1,2,4-triazin-3-yloxy)-2H,3H-spiro[1,3-benzoxazine-4,1′-cyclobutan]-3-yl}methyl)-2-pyridyl]amine] | 50 to 200 nM |  | 1 to 10 nM | 10 to 100 nM |  | 
CNS(=O)(=O)Nc1cccc(CN2Cc3ccc(C(F)(F)C(=O)N(C)C)cc3OC2=O)c1F [Compound 133] |  | 5 to 50 nM | 10 to 100 nM | 10 to 100 nM |  | 
CNS(=O)(=O)Nc1cccc(CN2Cc3cc(Cl)c(Oc4ncccn4)cc3OC2=O)c1F [Compound 148, 6-chloro-3-({2-fluoro-3-[(methylsulfamoyl)amino]phenyl}methyl)-7-(pyrimidin-2-yloxy)-3,4-dihydro-2H-1,3-benzoxazin-2-one] |  | 5 to 50 nM | 10 to 100 nM | 10 to 100 nM |  | 

— patent publication US20260297105A1, “RAF-MEK PROTEIN COMPLEX MODULATORS AND METHODS OF USE THEREOF” (GANDEEVA THERAPEUTICS, INC., priority 2023, published 2026)
